Assay results from ChEMBL document CHEMBL1201862, “PubChem BioAssay data set” (2004).
Active and inactive are the calls of the source.

What was measured:
[1] = inhibitors of PGC1a acetylation in cells, dose response, cell-based, cherry-picked samples (AID 720514); type: functional;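 further: potency may reflect raised or lowered acetylation signal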
[2] = P. falciparum Dd2 growth inhibitors, dose response, SYBR Green, cherry-picked samples (AID 1159567); type: functional, cell-based
[3] = HepG2 cell cytotoxicity, dose response, cytotoxicity control, cherry-picked samples (AID 1159577); type: functional, cell-based
Aminopeptidase N = target: T1, Aminopeptidase N (Plasmodium falciparum FcB1/Columbia, UniProt O96935); test: P. falciparum M1AAP inhibitors, biochemical, fluorogenic H-Leu-NHMec substrate, 1536-well (AID 1445); set-up: species or system Plasmodium falciparum 3D7, 3D7
T1 sequence (O96935 whole entry): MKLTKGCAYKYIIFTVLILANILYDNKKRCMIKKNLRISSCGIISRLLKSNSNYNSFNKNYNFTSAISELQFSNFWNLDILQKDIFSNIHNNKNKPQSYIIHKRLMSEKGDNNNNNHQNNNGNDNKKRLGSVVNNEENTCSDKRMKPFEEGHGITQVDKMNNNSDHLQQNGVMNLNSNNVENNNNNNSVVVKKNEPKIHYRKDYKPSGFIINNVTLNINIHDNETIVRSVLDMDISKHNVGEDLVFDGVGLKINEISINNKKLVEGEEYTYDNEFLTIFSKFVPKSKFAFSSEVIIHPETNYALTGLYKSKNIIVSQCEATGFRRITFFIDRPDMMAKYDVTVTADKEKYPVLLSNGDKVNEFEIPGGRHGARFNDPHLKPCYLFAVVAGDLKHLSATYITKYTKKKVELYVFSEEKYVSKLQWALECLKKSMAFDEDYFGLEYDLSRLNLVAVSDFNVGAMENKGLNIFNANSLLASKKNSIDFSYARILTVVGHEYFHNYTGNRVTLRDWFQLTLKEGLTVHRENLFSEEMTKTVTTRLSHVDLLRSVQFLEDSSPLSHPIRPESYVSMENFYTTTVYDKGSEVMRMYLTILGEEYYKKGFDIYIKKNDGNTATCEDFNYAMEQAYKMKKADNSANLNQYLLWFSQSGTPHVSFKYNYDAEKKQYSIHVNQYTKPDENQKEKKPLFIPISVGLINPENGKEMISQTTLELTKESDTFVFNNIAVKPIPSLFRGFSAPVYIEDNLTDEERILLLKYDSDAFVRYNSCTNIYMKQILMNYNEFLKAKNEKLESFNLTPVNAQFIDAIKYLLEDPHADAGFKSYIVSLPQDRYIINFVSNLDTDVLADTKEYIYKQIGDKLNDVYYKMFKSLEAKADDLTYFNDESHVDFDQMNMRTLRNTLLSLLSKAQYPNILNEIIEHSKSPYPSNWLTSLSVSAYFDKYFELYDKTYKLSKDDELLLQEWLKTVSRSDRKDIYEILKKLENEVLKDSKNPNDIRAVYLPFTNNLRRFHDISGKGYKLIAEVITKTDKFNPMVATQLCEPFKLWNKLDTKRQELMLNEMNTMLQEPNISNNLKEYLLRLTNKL

[4] = target: T2, DNA repair and recombination protein RAD54-like (Homo sapiens, UniProt Q92698); test: inhibitors of human RAD54 branch migration, confirmation, biochemical, fluorescence, cherry-picked samples, dose series (AID 651657); type: functional
T2 sequence (Q92698 whole entry): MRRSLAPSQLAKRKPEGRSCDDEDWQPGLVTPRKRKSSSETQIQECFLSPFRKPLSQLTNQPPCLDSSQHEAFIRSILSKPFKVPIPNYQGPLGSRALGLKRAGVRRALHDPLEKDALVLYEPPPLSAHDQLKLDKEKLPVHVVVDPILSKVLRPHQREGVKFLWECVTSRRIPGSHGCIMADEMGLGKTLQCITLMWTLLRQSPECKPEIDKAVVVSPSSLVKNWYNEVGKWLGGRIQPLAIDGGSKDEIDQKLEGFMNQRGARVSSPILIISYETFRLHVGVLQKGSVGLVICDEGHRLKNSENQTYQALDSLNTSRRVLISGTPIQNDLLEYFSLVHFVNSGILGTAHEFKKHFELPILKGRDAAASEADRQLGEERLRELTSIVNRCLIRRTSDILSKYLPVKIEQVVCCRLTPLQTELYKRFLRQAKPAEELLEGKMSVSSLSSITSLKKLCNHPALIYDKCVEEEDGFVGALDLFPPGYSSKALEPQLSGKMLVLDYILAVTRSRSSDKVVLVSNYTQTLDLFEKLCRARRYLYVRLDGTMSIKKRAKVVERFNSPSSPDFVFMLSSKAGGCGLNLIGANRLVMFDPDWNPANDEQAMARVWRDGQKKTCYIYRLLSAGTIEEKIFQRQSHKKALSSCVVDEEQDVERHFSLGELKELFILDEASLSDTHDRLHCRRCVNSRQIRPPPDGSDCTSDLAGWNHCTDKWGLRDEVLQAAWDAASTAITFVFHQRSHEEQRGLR

cells [5] = conditions: A549
cells [6] = conditions: HEK293
[7] = target: Sphingosine 1-phosphate receptor 2 (Homo sapiens, UniProt O95136); test: Dose Response Cell Based Assay for Agonists of the S1P2 Receptor. [Related pubchem assays: 729, 736, 843 ]; type: functional
Chain of Sphingosine 1-phosphate receptor 2 (O95136 whole entry): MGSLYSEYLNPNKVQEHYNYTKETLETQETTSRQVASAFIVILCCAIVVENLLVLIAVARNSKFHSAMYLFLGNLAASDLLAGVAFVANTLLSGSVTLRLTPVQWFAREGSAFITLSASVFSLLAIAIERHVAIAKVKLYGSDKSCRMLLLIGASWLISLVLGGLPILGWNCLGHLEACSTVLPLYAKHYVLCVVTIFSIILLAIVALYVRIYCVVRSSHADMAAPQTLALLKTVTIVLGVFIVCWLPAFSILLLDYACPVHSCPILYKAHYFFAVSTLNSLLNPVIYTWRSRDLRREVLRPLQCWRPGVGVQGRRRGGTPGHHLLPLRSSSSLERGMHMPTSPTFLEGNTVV

[8] = THP-1 cell cytotoxicity, dose response, cytotoxicity control for Vif-APOBEC3G degradation inhibitor project, THP-1 cells (AID 1117359); type: functional; conditions: Human immunodeficiency virus 1, THP-1
[9] = target: G-protein coupled receptor 183 (Homo sapiens, UniProt P32249); test: SAR confirmation of small molecule antagonists of the EBI2 receptor via a luminescent beta-arrestin assa.; type: functional
Chain of G-protein coupled receptor 183 (P32249 whole entry): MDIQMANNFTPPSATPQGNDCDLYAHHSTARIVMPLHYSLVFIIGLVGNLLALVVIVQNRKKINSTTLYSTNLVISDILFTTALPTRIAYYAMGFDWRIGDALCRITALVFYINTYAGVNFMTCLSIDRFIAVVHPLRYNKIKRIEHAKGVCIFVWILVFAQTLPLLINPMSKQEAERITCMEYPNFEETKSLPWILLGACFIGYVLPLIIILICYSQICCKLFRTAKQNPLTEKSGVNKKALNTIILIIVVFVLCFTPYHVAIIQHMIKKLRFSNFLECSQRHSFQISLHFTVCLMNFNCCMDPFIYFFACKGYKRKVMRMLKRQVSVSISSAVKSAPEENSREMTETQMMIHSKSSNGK

BJ [10] = test: cytotoxicity toward BJ-TERT fibroblasts, dose response, cell-based, RAS-independent, luminescence (AID 1933); type: functional; conditions: Homo sapiens
BJ [11] = test: cells; type: functional, cell-based; conditions: Homo sapiens
[12] = target: Luciferin 4-monooxygenase (Photinus pyralis, UniProt P08659); test: firefly luciferase enzyme inhibitors, dose response, biochemical, luminescence (AID 1891)
Chain of Luciferin 4-monooxygenase (P08659 whole entry): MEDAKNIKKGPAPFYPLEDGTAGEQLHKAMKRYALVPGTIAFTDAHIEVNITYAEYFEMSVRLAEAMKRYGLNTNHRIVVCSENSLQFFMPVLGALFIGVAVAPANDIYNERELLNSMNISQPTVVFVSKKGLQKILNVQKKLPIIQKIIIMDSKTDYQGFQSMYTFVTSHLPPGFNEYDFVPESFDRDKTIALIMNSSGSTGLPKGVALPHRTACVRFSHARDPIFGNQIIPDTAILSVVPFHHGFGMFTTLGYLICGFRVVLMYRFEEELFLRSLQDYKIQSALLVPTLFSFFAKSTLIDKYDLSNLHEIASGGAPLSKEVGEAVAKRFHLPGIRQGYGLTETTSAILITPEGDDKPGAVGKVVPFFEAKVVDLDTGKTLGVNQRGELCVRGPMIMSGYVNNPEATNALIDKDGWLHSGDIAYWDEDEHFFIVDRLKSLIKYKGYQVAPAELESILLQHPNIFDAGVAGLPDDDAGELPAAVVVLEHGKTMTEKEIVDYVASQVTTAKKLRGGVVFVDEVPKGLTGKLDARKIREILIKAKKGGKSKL

[13] = Luminescence Cell-Based Dose Confirmation HTS to Identify Inhibitors of Platelet Dense Granule Release. [Related pubchem assays: 1663 (Primary HTS), 1678 (Summary of Project)]; type: functional
[14] = microbe, parasite or virus in culture; type: functional; conditions: Mycobacterium tuberculosis
BJ [15] = test: cytotoxicity toward BJ-TERT-LT-ST fibroblasts, dose response, cell-based, RAS-independent, luminescence (AID 1935); type: functional; conditions: Homo sapiens;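 further: BJ fibroblasts immortalized with TERT plus LT and ST oncogenes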
[16] = cytotoxicity toward DRD oncogenic fibroblasts, dose response, cell-based, non-viral oncogenic, luminescence (AID 1934); type: functional; conditions: Homo sapiens
[17] = Dose-response inhibition of insulin secretion in a rat insulinoma line at 5 mM glucose (AID 1117331); type: functional, cell-based; conditions: INS-1E
[18] = TRPM1 promoter luciferase reporter signal decrease, dose response, MITF inhibitor project, cell-based, SK-MEL-5, dry powder, set 9 (AID 651588); type: functional
[19] = A375 melanoma cell viability loss, dose response, counter-screen for MITF inhibitor project, CellTiter-Glo luminescence, dry powder, set 4 (AID 624364); type: functional, cell-based; conditions: A-375;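 further: A375 melanoma cells are MITF independent so this is a counter screen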
[20] = A375 melanoma cell cytotoxicity, dose response, counter-screen for MITF inhibitor project, CellTiter-Glo luminescence, dry powder, set 7 (AID 624490); type: functional, cell-based; conditions: A-375
[21] = MITF Orthogonal Assay: MALME3 CTG Assay Measured in Cell-Based System Using Plate Reader - 2084-04_Inhibitor_Dose_DryPowder_Activity_Set6.; type: functional; conditions: MALME-3
[22] = SK-MEL-5 parental cell viability reduction, dose response, orthogonal assay for MITF inhibitor project, CellTiter-Glo luminescence, dry powder, set 8 (AID 651586); type: functional, cell-based
[23] = MALME3 melanoma cell viability reduction, dose response, orthogonal assay for MITF inhibitor project, CellTiter-Glo luminescence, dry powder, set 5 (AID 651584); type: functional, cell-based; conditions: MALME-3
[24] = SK-MEL-5 parental line viability, dose response, MITF inhibitor project, cell-based, CellTiter-Glo, dry powder, set 6 (AID 624429); type: functional
[25] = MITF Orthogonal Assay: SK-MEL-5 CTG Assay Measured in Cell-Based System Using Plate Reader - 2084-02_Inhibitor_Dose_DryPowder_Activity_Set5.; type: functional
[26] = A375 melanoma cell viability loss, dose response, counter-screen for MITF modulator project, CellTiter-Glo luminescence, dry powder, set 9 (AID 651591); type: functional, cell-based; conditions: A-375
[27] = MITF Measured in Cell-Based System Using Plate Reader - 2084-01_Inhibitor_Dose_DryPowder_Activity_Set6.; type: functional
[28] = MITF Measured in Cell-Based System Using Plate Reader - 2084-01_Inhibitor_Dose_DryPowder_Activity_Set7.; type: functional
[29] = half-maximal inhibitory concentration for glucagon-like peptide-1 release, STC-1 cell line, dose-response (AID 1117345); type: functional, cell-based
[30] = Glucagon-like peptide 1 release potency, NCI-H716 cell line, dose-response, half-maximal inhibitory concentration (AID 1117344); type: functional, cell-based

Cc1cccc(S(=O)(=O)N2C[C@@H]3N[C@H](C2)[C@@H]3c2ccc(-c3ccccc3C)cc2)c1
AC50 [1]: 12.8 µM (active)

COc1cccc(CN(C)C[C@H]2OCc3ccccc3-c3c(n(C)c4ccccc34)C(=O)N([C@H](C)CO)C[C@H]2C)c1
AC50 [2]: 6.01 µM (active)
AC50 [3]: > 39 µM (inactive)

CCn1c(=N)c(C(=O)NCCCOC)cc2c(=O)n3cccc(C)c3nc21
IC50 (Aminopeptidase N): 50.3 µM (active)
AC50 [4]: 33.6 µM (active)
AC50 (cells [5]): > 52 µM (inactive)
AC50 (cells [6]): > 52 µM (inactive)

Cc1cc(C)n2cc(CSc3nnnn3-c3ccc(Cl)cc3)nc2n1
EC50 [7]: > 50 µM (not active)

NS(=O)(=O)c1cccc(NS(=O)(=O)c2ccc(/C=C/C(=O)OCC(=O)c3ccccc3)cc2)c1
CC50 [8]: > 40 µM (active)

O=C(/C=C/c1ccc(Cl)cc1F)N1CCN(S(=O)(=O)c2ccccc2)CC1
IC50 [9]: 0.184 µM (active)

COc1ccccc1N1CCN(c2ccc(-c3ccccc3)nn2)CC1
EC50 (BJ [10]): 2.33 µM (active)
EC50 (BJ [11]): 17 µM (active)
EC50 [12]: 3.72 µM (active)
EC50 [13]: 5.08 µM (active)
CC50 [14]: 13.7 µM (active)
EC50 (BJ [15]): 1.93 µM (active)
EC50 [16]: 1.7 µM (active)
AC50 [1]: 25.9 µM (active)

CN(C)CCOC(C)(c1ccccc1)c1ccccn1 (stereo not drawn) [DOXYLAMINE SUCCINATE]
IC50 [17]: > 33.3 µM (inactive)

NC1=C(NS(=O)(=O)c2cccs2)C(=O)c2ccccc2C1=O
AC50 [18]: 21.3 µM (active)
AC50 [19]: > 70 µM (inactive)
AC50 [20]: 53 µM (active)
AC50 [21]: 32.5 µM (active)
AC50 [22]: 22.1 µM (active)
AC50 [23]: 32.5 µM (active)
AC50 [24]: 16.7 µM (active)
AC50 [25]: 16.9 µM (active)
AC50 [26]: > 70 µM (inactive)
AC50 [27]: 5.31 µM (active)
AC50 [28]: 5.42 µM (active)

Cc1c(C)c2c(c(C)c1OC(=O)CCC(=O)OCCO)CC[C@@](C)(CCC[C@H](C)CCC[C@H](C)CCCC(C)C)O2
IC50 [29]: > 40 µM (inactive)
IC50 [30]: > 40 µM (inactive)

O=C(/C=C/c1ccc(Br)cc1)N1CCN(Cc2ccc(Cl)cc2F)CC1
IC50 [9]: 0.00811 µM (active)
